Data on 25 compounds can be found in US11058688B2, “Imidazopiperazine inhibitors of transcription activating proteins” (Board of Regents, The University of Texas System, priority 2018, dated 2021).

Test [1] concerns the target GST-CBP(1081-1197) bromodomain (Homo sapiens (Human), UniProt Q92793). In words: CBP AlphaScreen Assay. To be noted: binding to biotin-H4(1-21) Ac-K5/8/12/16 peptide. The essentials: (§1)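 IC50 values derived by variable-slope dose-response fit between negative and DMSO control signals. AlphaScreen signal reports bromodomain association with an H4(1-21) peptide acetylated at K5, K8, K12 and K16.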
For orientation: Bead proximity is the source of the signal in Alpha formats.

In test [2] the target is BRD4(49-170) bromodomain (Homo sapiens (Human), UniProt O60885). Nature of the test: BRD4 AlphaScreen Assay. Particulars: binding to biotin-H4(1-21) Ac-K5/8/12/16 peptide. The essentials: as §1

A value given as a limit tells only on which side of the number the result lay.

Chain of GST-CBP(1081-1197) bromodomain (Q92793 1081-1197): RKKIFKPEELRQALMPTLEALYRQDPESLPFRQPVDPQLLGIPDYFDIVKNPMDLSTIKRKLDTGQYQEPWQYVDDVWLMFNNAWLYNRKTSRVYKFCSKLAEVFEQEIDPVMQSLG

The IC50 is the concentration that inhibits the measured activity by half. Lower therefore signals greater potency in that assay. Regarding `CC(=O)N1CCn2c(C3CCOCC3)nc(-c3ccc4c(c3)c(-c3cnn(C)c3)nn4C)c2C1` [Example 104, 1-(1-(1-methyl-3-(1-methyl-1H-pyrazol-4-yl)-1H-indazol-5-yl)-3-(tetrahydro-2H-pyran-4-yl)-5,6-dihydroimidazo[1,5-a]pyrazin-7(8H)-yl)ethan-1-one], the IC50 in test [1] amounted to 107 nM; in test [2], 3730 nM.
As for `CNC(=O)N1CCn2c(C3CC(F)(F)C3)nc(-c3c(F)ccc4cc(-c5cnc(C)s5)ncc34)c2C1` [Example 92, 3-(3,3-difluorocyclobutyl)-1-(7-fluoro-3-(2-methylthiazol-5-yl)isoquinolin-8-yl)-N-methyl-5,6-dihydroimidazo[1,5-a]pyrazine-7(8H)-carboxamide], the IC50 in test [1] was 10 nM; in test [2], over 25000 nM.
For `CNC(=O)N1CCn2c(C3CC3)nc(-c3csc4cc(-c5cnn(C)c5)ncc34)c2C1` [Example 39, 3-Cyclopropyl-N-methyl-1-(6-(1-methyl-1H-pyrazol-4-yl)thieno[3,2-c]pyridin-3-yl)-5,6-dihydroimidazo[1,5-a]pyrazine-7(8H)-carboxamide], in that order: 33 nM and 14800 nM.
For `CC(=O)N1CCn2c(C3CC3)nc(-c3cnc4c(c3)c(-c3cnn(C)c3)nn4C)c2C1` [Example 26, 1-(3-cyclopropyl-1-(1-methyl-3-(1-methyl-1H-pyrazol-4-yl)-1H-pyrazolo[3,4-b]pyridin-5-yl)-5,6-dihydroimidazo[1,5-a]pyrazin-7(8H)-yl)ethan-1-one], in that order: 181 nM and over 25000 nM.
With `CNC(=O)N1CCn2c(C3CCOCC3)nc(-c3c(F)ccc4cc(-c5cn(C)nc5C)ncc34)c2C1` [Example 73, 1-(3-(1,3-dimethyl-1H-pyrazol-4-yl)-7-fluoroisoquinolin-8-yl)-N-methyl-3-(tetrahydro-2H-pyran-4-yl)-5,6-dihydroimidazo[1,5-a]pyrazine-7(8H)-carboxamide], the results for the IC50 in test [1] and in test [2] were 40 nM and over 25000 nM, respectively.
Regarding `CNC(=O)N1CCn2c(C3CC(F)(F)C3)nc(-c3cccc4nc(-c5cnn(C)c5)c(C(F)(F)F)cc34)c2C1` [Example 20, 3-(3,3-Difluorocyclobutyl)-N-methyl-1-(2-(1-methyl-1H-pyrazol-4-yl)-3-(trifluoromethyl)quinolin-5-yl)-5,6-dihydroimidazo[1,5-a]pyrazine-7(8H)-carboxamide], the IC50 turned out to be 18 nM in test [1] and 25000 nM in test [2].
Regarding `CC(=O)N1CCC(c2nc(-c3ccc4c(c3)c(-c3cnn(C)c3)nn4C)c3n2CCN(C(C)=O)C3)CC1` [Example 53, 1-(4-(7-acetyl-1-(1-methyl-3-(1-methyl-1H-pyrazol-4-yl)-1H-indazol-5-yl)-5,6,7,8-tetrahydroimidazo[1,5-a]pyrazin-3-yl)piperidin-1-yl)ethan-1-one], the IC50 in test [1] is 176 nM; in test [2], over 10000 nM.
`CC(=O)N1CCn2c(C3CC3)nc(-c3cc4c(-c5cnn(C)c5)nn(C)c4cc3F)c2C1` [Example 28, 1-(3-Cyclopropyl-1-(6-fluoro-1-methyl-3-(1-methyl-1H-pyrazol-4-yl)-1H-indazol-5-yl)-5,6-dihydroimidazo[1,5-a]pyrazin-7(8H)-yl)ethan-1-one]: the IC50 was 33 nM in test [1] and 18600 nM in test [2].
As for `CNC(=O)c1ccc(-c2nc3cccc(-c4nc(C5CC5)n5c4CN(C(=O)NC)CC5)c3cc2C#N)cn1` [Example 99, 1-(3-cyano-2-(6-(methylcarbamoyl)pyridin-3-yl)quinolin-5-yl)-3-cyclopropyl-N-methyl-5,6-dihydroimidazo[1,5-a]pyrazine-7(8H)-carboxamide], the IC50 in test [1] stood at 11 nM; in test [2], 8710 nM.
For `CC(=O)N1CCn2c(Cl)nc(-c3ccc4c(c3)c(-c3cnn(C)c3)nn4C)c2C1` [Example 32, 1-(3-Chloro-1-(1-methyl-3-(1-methyl-1H-pyrazol-4-yl)-1H-indazol-5-yl)-5,6-dihydroimidazo[1,5-a]pyrazin-7(8H)-yl)ethan-1-one], in that order: 439 nM and over 10000 nM.
Take `CC(=O)N1CCn2c(C3CC3)nc(-c3ccc4c(c3)c(-c3cnn(C)c3)nn4C)c2C1` [Example 44, 1-(3-cyclopropyl-1-(1-methyl-3-(1-methyl-1H-pyrazol-4-yl)-1H-indazol-5-yl)-5,6-dihydroimidazo[1,5-a]pyrazin-7(8H)-yl)ethan-1-one]: the IC50 amounted to 47 nM in test [1] and 12100 nM in test [2].
For `CNC(=O)N1CCn2c(C3CC3)nc(-c3cccc4nc(-c5cnc(C)s5)c(C#N)cc34)c2C1` [Example 100, 1-(3-cyano-2-(2-methylthiazol-5-yl)quinolin-5-yl)-3-cyclopropyl-N-methyl-5,6-dihydroimidazo[1,5-a]pyrazine-7(8H)-carboxamide] the same measures were 4 nM and 7950 nM.
For `CNC(=O)N1CCn2c(C3CC3)nc(-c3ccnc4cc(-c5cnn(C)c5)c(OC(F)(F)F)cc34)c2C1` [Example 2, 3-cyclopropyl-N-methyl-1-(7-(1-methyl-1H-pyrazol-4-yl)-6-(trifluoromethoxy)quinolin-4-yl)-5,6-dihydroimidazo[1,5-a]pyrazine-7(8H)-carboxamide] the same measures were 3 nM and 8900 nM.
In the case of `CNC(=O)N1Cc2c(-c3cccc4cc(-c5cnn(C)c5)ncc34)nc(C3CC3)n2CC1C` (centres unmarked) [Example 125, 3-cyclopropyl-N,6-dimethyl-1-(3-(1-methyl-1H-pyrazol-4-yl)isoquinolin-8-yl)-5,6-dihydroimidazo[1,5-a]pyrazine-7(8H)-carboxamide], the IC50 in test [1] was 19 nM; in test [2], over 10000 nM.
Consider `CC(=O)N1CCn2c(C3CC3)nc(-c3ccc4nn(C)c(-c5cnn(C)c5)c4c3F)c2C1` [Example 27, 1-(3-Cyclopropyl-1-(4-fluoro-2-methyl-3-(1-methyl-1H-pyrazol-4-yl)-2H-indazol-5-yl)-5,6-dihydroimidazo[1,5-a]pyrazin-7(8H)-yl)ethan-1-one], for which the IC50 in test [1] is 1220 nM; in test [2] it was over 25000 nM.
As to `CNC(=O)N1CCn2c(C3CC3)nc(-c3cccc4cc(-c5cnc(C)s5)ncc34)c2C1` [Example 23, 3-Cyclopropyl-N-methyl-1-(3-(2-methylthiazol-5-yl)isoquinolin-8-yl)-5,6-dihydroimidazo[1,5-a]pyrazine-7(8H)-carboxamide], the values for the IC50 in test [1] and in test [2] were 1 nM and 3850 nM, respectively.
Regarding `CC(=O)N1CCn2c(C3CC3)nc(N3CCCc4cc(-c5cnn(CCN6CCOCC6)c5)ccc43)c2C1` [Example 122, 1-(3-cyclopropyl-1-(6-(1-(2-morpholinoethyl)-1H-pyrazol-4-yl)-3,4-dihydroquinolin-1(2H)-yl)-5,6-dihydroimidazo[1,5-a]pyrazin-7(8H)-yl)ethan-1-one], the IC50 in test [1] was 500 nM; in test [2], over 25000 nM.
Consider `CC(=O)N1CCn2c(C3CN(C)C3)nc(-c3ccc4c(c3)c(-c3cnn(C)c3)nn4C)c2C1` [Example 13, 1-(1-(1-Methyl-3-(1-methyl-1H-pyrazol-4-yl)-1H-indazol-5-yl)-3-(1-methylazetidin-3-yl)-5,6-dihydroimidazo[1,5-a]pyrazin-7(8H)-yl)ethanone], for which the values for the IC50 in test [1] and in test [2] were 1380 nM and over 10000 nM, respectively.
Take `CNC(=O)N1CCn2c(C3CC3)nc(-c3cccc4nc(-c5cnn(C)c5)ncc34)c2C1` [Example 37, 3-Cyclopropyl-N-methyl-1-(2-(1-methyl-1H-pyrazol-4-yl)quinazolin-5-yl)-5,6-dihydroimidazo[1,5-a]pyrazine-7(8H)-carboxamide]: the IC50 in test [1] was 16 nM; in test [2] it was 14300 nM.
For `CNC(=O)N1CCn2c(C3CCOCC3)nc(-c3cccc4cc(C5CCOCC5)ncc34)c2C1` [Example 68, N-methyl-3-(tetrahydro-2H-pyran-4-yl)-1-(3-(tetrahydro-2H-pyran-4-yl)isoquinolin-8-yl)-5,6-dihydroimidazo[1,5-a]pyrazine-7(8H)-carboxamide], in that order: 16 nM and over 25000 nM.
For `CC(=O)N1CCn2c(C3CC3)nc(N3CCCc4cc(-c5cnn(C6CCOCC6)c5)ccc43)c2C1` [Example 109, 1-(3-cyclopropyl-1-(6-(1-(tetrahydro-2H-pyran-4-yl)-1H-pyrazol-4-yl)-3,4-dihydroquinolin-1(2H)-yl)-5,6-dihydroimidazo[1,5-a]pyrazin-7(8H)-yl)ethan-1-one] the same measures were 349 nM and 13800 nM.
For `CC(=O)N1CCn2c(C3CC3)nc(N3CCCc4cc(-c5ccc(C(N)=O)cc5)ccc43)c2C1` [Example 35, 4-(1-(7-Acetyl-3-cyclopropyl-5,6,7,8-tetrahydroimidazo[1,5-a]pyrazin-1-yl)-1,2,3,4-tetrahydroquinolin-6-yl)benzamide], the IC50 in test [1] is 79 nM; in test [2] it was over 25000 nM.
For the compound `CC(=O)N1CCn2c(C3CC3)nc(-c3cnc(N)c(OC(F)(F)F)c3)c2C1` [Example 41, 1-(1-(6-amino-5-(trifluoromethoxy)pyridin-3-yl)-3-cyclopropyl-5,6-dihydroimidazo[1,5-a]pyrazin-7(8H)-yl)ethan-1-one], the IC50 in test [1] is 4490 nM; in test [2], over 25000 nM.
For `CNC(=O)N1CCn2c(C3CC3)nc(-c3cccc4cc(N5CCOCC5)ncc34)c2C1` [Example 18, 3-cyclopropyl-N-methyl-1-(3-morpholinoisoquinolin-8-yl)-5,6-dihydroimidazo[1,5-a]pyrazine-7(8H)-carboxamide], in that order: 50 nM and over 25000 nM.
Turning to `CNC(=O)N1CCn2c(C3CCC(F)(F)CC3)nc(-c3cccc4nc(-c5cnn(C)c5)c(C(F)(F)F)cc34)c2C1` [Example 78, 3-(4,4-difluorocyclohexyl)-N-methyl-1-(2-(1-methyl-1H-pyrazol-4-yl)-3-(trifluoromethyl)quinolin-5-yl)-5,6-dihydroimidazo[1,5-a]pyrazine-7(8H)-carboxamide], the IC50 in test [1] is 1 nM; in test [2] it was 13500 nM.
